GI50 data for one compound are collected here from ChEMBL document CHEMBL5500390, “Overcoming Secondary Mutations of Type II Kinase Inhibitors” (J Med Chem, 2024).

Assay [1] can be described thus: Inhibition of cell growth in mouse 32D cells transfected with FLT3 ITD F691L mutant incubated for 2 days. It counts as functional. The settings on record: 48 h, time 2 day.
A short description of assay [2]: Inhibition of cell growth in mouse 32D cells transfected with FLT3 ITD mutant incubated for 2 days. The format is functional. The settings on record: 48 h, time 2 day.

In the case of `CCCNc1nc(Nc2ccc(C#N)cc2)ncc1C#CCCCNC(=O)[C@H](C)N(C)C(=O)/C=C/CN(C)C` [FF-10101], the figures for the GI50 in assay [1] and in assay [2] were 10 nM and 1.9 nM, respectively.

A word on the GI50: it is the concentration at which growth is held to half of that of the control. Read a high GI50 as less potent growth inhibition.
